Data published in article PMC8449129, “Single tracer-based protocol for broad-spectrum kinase profiling in live cells with NanoBRET” (STAR Protocols, 2021).

What was measured:
Assay in all cases: cell-based
Parameters in all cases: NanoBRET live-cell target engagement; % occupancy from displacement of tracer K10 on NanoLuc-kinase fusions, mean n=3
Conditions in all cases: HEK293, read-out: % inhibition
[1] = biological target: CSNK2A1 (Homo sapiens, UniProt P68400)
Summary of the method: (§1)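 Live-cell NanoBRET target engagement: cells expressing kinase–NanoLuc fusion with tracer treated with compound 2 h at 37 °C, 5% CO2. BRET read from donor (450 nm) and acceptor (610/630 nm) emission with 20 μM extracellular NanoLuc inhibitor; % occupancy calculated relative to tracer+DMSO and zero-BRET controls.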

[2] = biological target: CDKL5 (Homo sapiens, UniProt O76039)
Summary of the method: as §1

[3] = biological target: TEK (Homo sapiens, UniProt Q02763)
Summary of the method: as §1

[4] = biological target: JAK3 (Homo sapiens, UniProt P52333)
Summary of the method: as §1

[5] = biological target: MAP3K21 (Homo sapiens, UniProt Q5TCX8)
Summary of the method: as §1

[6] = biological target: WEE2 (Homo sapiens, UniProt P0C1S8)
Summary of the method: as §1

[7] = biological target: MAP3K12 (Homo sapiens, UniProt Q12852)
Summary of the method: as §1

[8] = biological target: STK17B (Homo sapiens, UniProt O94768)
Summary of the method: as §1

[9] = biological target: PKMYT1 (Homo sapiens, UniProt Q99640)
Summary of the method: as §1

[10] = biological target: BMP2K (Homo sapiens, UniProt Q9NSY1)
Summary of the method: as §1

[11] = biological target: CAMK2A (Homo sapiens, UniProt Q9UQM7)
Summary of the method: as §1

[12] = biological target: MAP3K19 (Homo sapiens, UniProt Q56UN5)
Summary of the method: as §1

[13] = biological target: FLT3 (Homo sapiens, UniProt P36888)
Summary of the method: as §1

[14] = biological target: DCLK3 (Homo sapiens, UniProt Q9C098)
Summary of the method: as §1

[15] = biological target: CHEK2 (Homo sapiens, UniProt O96017)
Summary of the method: as §1

[16] = biological target: NUAK1 (Homo sapiens, UniProt O60285)
Summary of the method: as §1

[17] = biological target: ERN2 (Homo sapiens, UniProt Q76MJ5)
Summary of the method: as §1

[18] = biological target: PAK4 (Homo sapiens, UniProt O96013)
Summary of the method: as §1

Chain of CAMK2A (Q9UQM7 whole entry): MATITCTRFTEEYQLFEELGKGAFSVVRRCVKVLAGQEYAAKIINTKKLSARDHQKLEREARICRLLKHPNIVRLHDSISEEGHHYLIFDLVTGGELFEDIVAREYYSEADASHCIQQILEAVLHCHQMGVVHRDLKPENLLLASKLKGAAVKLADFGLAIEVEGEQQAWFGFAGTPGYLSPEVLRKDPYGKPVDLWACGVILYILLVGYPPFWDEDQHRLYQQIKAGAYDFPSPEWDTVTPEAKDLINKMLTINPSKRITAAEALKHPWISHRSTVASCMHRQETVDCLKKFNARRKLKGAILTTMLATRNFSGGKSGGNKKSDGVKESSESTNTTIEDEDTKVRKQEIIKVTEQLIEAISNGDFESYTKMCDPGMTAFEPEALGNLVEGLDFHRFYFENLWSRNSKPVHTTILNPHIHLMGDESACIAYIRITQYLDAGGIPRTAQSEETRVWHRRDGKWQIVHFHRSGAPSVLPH
Chain of MAP3K21 (Q5TCX8 whole entry): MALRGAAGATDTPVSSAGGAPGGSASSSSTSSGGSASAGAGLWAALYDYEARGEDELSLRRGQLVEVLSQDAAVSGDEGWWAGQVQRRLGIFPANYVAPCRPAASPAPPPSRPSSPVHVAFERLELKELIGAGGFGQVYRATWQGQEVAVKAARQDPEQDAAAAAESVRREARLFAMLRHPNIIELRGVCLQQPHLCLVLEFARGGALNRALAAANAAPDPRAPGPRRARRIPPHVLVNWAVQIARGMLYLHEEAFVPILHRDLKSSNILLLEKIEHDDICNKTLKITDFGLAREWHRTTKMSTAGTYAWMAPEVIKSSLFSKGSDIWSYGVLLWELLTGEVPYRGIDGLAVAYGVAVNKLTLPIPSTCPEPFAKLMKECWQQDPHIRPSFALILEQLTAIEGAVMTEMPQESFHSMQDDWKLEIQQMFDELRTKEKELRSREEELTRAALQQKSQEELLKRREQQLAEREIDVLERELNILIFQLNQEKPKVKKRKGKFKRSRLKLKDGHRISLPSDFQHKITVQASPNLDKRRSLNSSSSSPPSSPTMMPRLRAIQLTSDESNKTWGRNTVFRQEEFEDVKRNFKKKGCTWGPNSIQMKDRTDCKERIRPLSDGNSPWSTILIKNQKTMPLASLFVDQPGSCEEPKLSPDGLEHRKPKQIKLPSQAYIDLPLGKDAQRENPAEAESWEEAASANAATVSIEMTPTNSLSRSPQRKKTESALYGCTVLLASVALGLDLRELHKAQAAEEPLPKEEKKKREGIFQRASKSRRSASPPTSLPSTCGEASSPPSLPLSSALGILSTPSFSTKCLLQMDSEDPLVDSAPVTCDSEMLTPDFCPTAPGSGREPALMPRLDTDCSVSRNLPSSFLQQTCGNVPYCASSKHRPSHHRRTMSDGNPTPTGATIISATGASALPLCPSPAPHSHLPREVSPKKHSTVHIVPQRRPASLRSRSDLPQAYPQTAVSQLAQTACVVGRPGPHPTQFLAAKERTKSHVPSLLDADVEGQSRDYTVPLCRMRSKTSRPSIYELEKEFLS
Chain of ERN2 (Q76MJ5 whole entry): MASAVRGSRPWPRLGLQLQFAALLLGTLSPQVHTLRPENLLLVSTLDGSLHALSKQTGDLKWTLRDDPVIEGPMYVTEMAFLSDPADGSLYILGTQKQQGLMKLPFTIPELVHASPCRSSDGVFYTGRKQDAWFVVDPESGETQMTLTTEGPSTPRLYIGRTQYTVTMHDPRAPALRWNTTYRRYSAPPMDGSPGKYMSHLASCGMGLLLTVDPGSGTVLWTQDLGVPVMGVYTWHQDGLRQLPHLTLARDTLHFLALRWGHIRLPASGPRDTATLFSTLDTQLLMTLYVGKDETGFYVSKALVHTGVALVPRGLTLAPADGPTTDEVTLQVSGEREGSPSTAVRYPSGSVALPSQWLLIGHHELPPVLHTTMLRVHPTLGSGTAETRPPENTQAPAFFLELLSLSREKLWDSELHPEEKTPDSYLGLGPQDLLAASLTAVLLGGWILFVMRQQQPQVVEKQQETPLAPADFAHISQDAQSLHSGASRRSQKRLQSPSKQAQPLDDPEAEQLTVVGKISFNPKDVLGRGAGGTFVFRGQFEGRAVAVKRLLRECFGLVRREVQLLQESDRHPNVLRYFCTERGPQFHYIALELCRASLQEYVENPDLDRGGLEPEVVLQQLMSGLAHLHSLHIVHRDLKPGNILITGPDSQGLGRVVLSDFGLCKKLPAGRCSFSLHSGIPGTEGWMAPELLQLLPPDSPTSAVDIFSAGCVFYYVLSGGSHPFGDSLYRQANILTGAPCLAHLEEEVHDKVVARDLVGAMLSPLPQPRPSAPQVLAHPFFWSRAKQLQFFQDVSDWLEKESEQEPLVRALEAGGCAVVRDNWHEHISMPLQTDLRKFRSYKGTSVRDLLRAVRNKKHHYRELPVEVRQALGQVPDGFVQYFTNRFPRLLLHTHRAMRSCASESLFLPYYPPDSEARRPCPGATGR
Chain of CDKL5 (O76039 whole entry): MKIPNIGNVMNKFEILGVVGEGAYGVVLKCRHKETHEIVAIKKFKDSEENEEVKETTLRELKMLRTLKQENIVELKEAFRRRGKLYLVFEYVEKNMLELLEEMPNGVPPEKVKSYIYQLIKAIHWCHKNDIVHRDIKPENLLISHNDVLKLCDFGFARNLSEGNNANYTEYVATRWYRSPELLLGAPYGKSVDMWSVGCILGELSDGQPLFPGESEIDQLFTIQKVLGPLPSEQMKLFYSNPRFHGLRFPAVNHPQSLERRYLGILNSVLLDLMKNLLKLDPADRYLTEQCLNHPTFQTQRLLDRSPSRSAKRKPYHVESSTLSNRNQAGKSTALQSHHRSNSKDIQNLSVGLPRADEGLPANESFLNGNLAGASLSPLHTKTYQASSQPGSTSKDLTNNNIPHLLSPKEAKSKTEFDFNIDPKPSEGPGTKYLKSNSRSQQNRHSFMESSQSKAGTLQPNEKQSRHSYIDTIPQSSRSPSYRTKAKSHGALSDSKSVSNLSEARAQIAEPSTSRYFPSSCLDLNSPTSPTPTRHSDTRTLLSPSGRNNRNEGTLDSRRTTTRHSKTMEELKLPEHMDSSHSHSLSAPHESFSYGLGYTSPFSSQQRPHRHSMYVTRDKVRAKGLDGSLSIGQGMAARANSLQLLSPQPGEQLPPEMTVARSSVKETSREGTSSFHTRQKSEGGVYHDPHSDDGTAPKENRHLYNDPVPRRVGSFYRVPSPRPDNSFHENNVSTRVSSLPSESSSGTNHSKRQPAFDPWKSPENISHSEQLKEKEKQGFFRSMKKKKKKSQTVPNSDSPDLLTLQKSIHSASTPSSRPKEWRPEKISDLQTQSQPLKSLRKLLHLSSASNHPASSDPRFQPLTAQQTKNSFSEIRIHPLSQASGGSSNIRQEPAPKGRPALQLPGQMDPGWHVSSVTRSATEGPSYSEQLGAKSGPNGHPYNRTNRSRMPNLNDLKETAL
Chain of BMP2K (Q9NSY1 whole entry): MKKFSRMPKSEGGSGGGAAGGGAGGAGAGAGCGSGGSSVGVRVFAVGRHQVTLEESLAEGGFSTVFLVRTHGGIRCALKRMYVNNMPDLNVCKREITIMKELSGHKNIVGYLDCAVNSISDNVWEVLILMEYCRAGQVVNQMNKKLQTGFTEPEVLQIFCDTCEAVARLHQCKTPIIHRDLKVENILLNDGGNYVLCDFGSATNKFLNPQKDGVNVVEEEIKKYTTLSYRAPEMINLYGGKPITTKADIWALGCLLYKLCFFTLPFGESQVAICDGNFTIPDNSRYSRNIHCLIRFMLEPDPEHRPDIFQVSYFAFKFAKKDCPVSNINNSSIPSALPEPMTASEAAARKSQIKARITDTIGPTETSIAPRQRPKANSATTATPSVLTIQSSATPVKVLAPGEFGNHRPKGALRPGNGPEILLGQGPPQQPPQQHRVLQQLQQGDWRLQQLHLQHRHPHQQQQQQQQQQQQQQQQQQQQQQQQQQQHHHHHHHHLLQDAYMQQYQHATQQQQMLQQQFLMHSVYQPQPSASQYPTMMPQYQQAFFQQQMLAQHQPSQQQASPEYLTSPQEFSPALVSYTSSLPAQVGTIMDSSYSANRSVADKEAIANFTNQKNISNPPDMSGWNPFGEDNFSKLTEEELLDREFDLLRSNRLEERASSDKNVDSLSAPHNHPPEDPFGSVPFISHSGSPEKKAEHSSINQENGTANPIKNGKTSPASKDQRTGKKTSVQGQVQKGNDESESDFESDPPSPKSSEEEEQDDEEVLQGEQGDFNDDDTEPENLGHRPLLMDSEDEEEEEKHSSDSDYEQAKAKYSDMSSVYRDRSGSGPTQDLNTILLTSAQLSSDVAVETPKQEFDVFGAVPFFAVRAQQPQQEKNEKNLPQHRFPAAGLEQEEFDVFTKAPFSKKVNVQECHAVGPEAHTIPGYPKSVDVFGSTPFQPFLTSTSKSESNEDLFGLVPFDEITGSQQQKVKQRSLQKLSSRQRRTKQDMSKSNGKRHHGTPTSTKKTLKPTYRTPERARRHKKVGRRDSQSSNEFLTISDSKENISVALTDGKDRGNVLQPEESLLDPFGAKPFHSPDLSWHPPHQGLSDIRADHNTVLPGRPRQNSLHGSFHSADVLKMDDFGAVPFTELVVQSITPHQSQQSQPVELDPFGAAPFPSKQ
Chain of STK17B (O94768 whole entry): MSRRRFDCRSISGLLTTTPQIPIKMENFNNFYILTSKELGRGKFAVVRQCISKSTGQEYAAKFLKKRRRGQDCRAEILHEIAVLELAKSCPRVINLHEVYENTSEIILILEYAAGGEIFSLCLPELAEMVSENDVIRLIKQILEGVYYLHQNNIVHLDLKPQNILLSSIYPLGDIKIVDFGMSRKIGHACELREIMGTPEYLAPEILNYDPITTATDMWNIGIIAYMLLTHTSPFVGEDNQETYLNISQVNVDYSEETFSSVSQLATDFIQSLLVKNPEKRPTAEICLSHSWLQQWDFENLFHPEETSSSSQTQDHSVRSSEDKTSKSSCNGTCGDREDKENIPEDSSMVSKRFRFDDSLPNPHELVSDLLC

C[C@@H](Oc1cc(-c2cnn(C3CCNCC3)c2)cnc1N)c1c(Cl)ccc(F)c1Cl [crizotinib]
inhibition at 1 µM [1]: 5%
inhibition at 1 µM [2]: 4%
inhibition at 1 µM [3]: 37%
inhibition at 1 µM [4]: 2%
inhibition at 1 µM [5]: 3%
inhibition at 1 µM [6]: -4%
inhibition at 1 µM [7]: 12%
inhibition at 1 µM [8]: 0%
inhibition at 1 µM [9]: 6%
inhibition at 1 µM [10]: 11%
inhibition at 1 µM [11]: 3%
inhibition at 1 µM [12]: 6%
inhibition at 1 µM [13]: -4%
inhibition at 1 µM [14]: 0%
inhibition at 1 µM [15]: 0%
inhibition at 1 µM [16]: 36%
inhibition at 1 µM [17]: -9%
inhibition at 1 µM [18]: 1%
